Legend:
[1] = system: Echinochloa crus-galli; test: Pre-emergence herbicidal effect; format: in vivo; details: scored visually after 3 weeks
Outline: (§1)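 Visual damage score in % after 3 weeks in the greenhouse, relative to untreated controls (0% like control, 100% plants dead). Compounds were sprayed pre-emergence onto covering soil over seeds sown in sandy loam, as WP or EC in water at 600 to 800 L/ha plus 0.2% wetting agent.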

[2] = system: Polygonum convolvulus; test: Pre-emergence herbicidal effect; format: in vivo; details: scored visually after 3 weeks
Outline: as §1

[3] = system: Viola tricolor; test: Pre-emergence herbicidal effect; format: in vivo; details: scored visually after 3 weeks
Outline: as §1

[4] = system: Matricaria inodora; test: Pre-emergence herbicidal effect; format: in vivo; details: scored visually after 3 weeks
Outline: as §1

[5] = system: Amaranthus retroflexus; test: Pre-emergence herbicidal effect; format: in vivo; details: scored visually after 3 weeks
Outline: as §1

[6] = system: Lolium multiflorum; test: Pre-emergence herbicidal effect; format: in vivo; details: scored visually after 3 weeks
Outline: as §1

[7] = system: Veronica persica; test: Pre-emergence herbicidal effect; format: in vivo; details: scored visually after 3 weeks
Outline: as §1

[8] = system: Alopecurus myosuroides; test: Pre-emergence herbicidal effect; format: in vivo; details: scored visually after 3 weeks
Outline: as §1

[9] = system: Setaria viridis; test: Pre-emergence herbicidal effect; format: in vivo; details: scored visually after 3 weeks
Outline: as §1

[10] = system: Stellaria media; test: Pre-emergence herbicidal effect; format: in vivo; details: scored visually after 3 weeks
Outline: as §1

[11] = system: Cyperus esculentus; test: Pre-emergence herbicidal effect; format: in vivo; details: Dosage 320 g/ha, scored visually after 3 weeks
Outline: as §1

[12] = system: Viola tricolor; test: Post-emergence herbicidal effect; format: in vivo; details: assessed visually after about 3 weeks vs untreated controls
Outline: (§2)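 Greenhouse weeds grown in sandy loam were sprayed at the one-leaf stage, 2–3 weeks after sowing, with WP or EC formulations in 600–800 L/ha water plus 0.2% wetting agent. Damage was scored visually after about 3 weeks as percent activity relative to untreated controls, where 100% means the plants died.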

[13] = system: Matricaria inodora; test: Post-emergence herbicidal effect; format: in vivo; details: assessed visually after about 3 weeks vs untreated controls
Outline: as §2

[14] = system: Amaranthus retroflexus; test: Post-emergence herbicidal effect; format: in vivo; details: assessed visually after about 3 weeks vs untreated controls
Outline: as §2

[15] = system: Ipomoea purpurea; test: Post-emergence herbicidal effect; format: in vivo; details: assessed visually after about 3 weeks vs untreated controls
Outline: as §2

[16] = system: Veronica persica; test: Post-emergence herbicidal effect; format: in vivo; details: assessed visually after about 3 weeks vs untreated controls
Outline: as §2

[17] = system: Stellaria media; test: Post-emergence herbicidal effect; format: in vivo; details: assessed visually after about 3 weeks vs untreated controls
Outline: as §2

[18] = logP (HCOOH); format: physicochemical; details: HCOOH
Text: Table 2 (physicochemical characterization of selected synthesis examples)

[19] = system: Echinochloa crus-galli; test: Post-emergence herbicidal effect; format: in vivo; details: assessed visually after about 3 weeks vs untreated controls
Outline: as §2

[20] = system: Polygonum convolvulus; test: Post-emergence herbicidal effect; format: in vivo; details: 320 g/ha, assessed visually after about 3 weeks vs untreated controls
Outline: as §2

[21] = system: Abutilon theophrasti; test: Post-emergence herbicidal effect; format: in vivo; details: assessed visually after about 3 weeks vs untreated controls
Outline: as §2

[22] = system: Setaria viridis; test: Post-emergence herbicidal effect; format: in vivo; details: assessed visually after about 3 weeks vs untreated controls
Outline: as §2

[23] = system: Abutilon theophrasti; test: Pre-emergence herbicidal effect; format: in vivo; details: scored visually after 3 weeks
Outline: as §1

Row | Structure (SMILES) | ECHCG pre-emergence efficacy (herbicidal activity) ([1]; Dosage 320 g/ha) [%] | POLCO pre-emergence efficacy (herbicidal activity) ([2]; Dosage 320 g/ha) [%] | VIOTR pre-emergence efficacy (herbicidal activity) ([3]; Dosage 320 g/ha) [%] | MATIN pre-emergence efficacy (herbicidal activity) ([4]; Dosage 80 g/ha) [%] | MATIN pre-emergence efficacy (herbicidal activity) ([4]; Dosage 320 g/ha) [%] | AMARE pre-emergence efficacy (herbicidal activity) ([5]; Dosage 80 g/ha) [%] | AMARE pre-emergence efficacy (herbicidal activity) ([5]; Dosage 320 g/ha) [%] | LOLMU pre-emergence efficacy (herbicidal activity) ([6]; Dosage 320 g/ha) [%] | VERPE pre-emergence efficacy (herbicidal activity) ([7]; Dosage 80 g/ha) [%] | VERPE pre-emergence efficacy (herbicidal activity) ([7]; Dosage 320 g/ha) [%] | ALOMY pre-emergence efficacy (herbicidal activity) ([8]; Dosage 320 g/ha) [%] | SETVI pre-emergence efficacy (herbicidal activity) ([9]; Dosage 80 g/ha) [%] | SETVI pre-emergence efficacy (herbicidal activity) ([9]; Dosage 320 g/ha) [%] | STEME pre-emergence efficacy (herbicidal activity) ([10]; Dosage 80 g/ha) [%] | STEME pre-emergence efficacy (herbicidal activity) ([10]; Dosage 320 g/ha) [%] | CYPES pre-emergence efficacy (herbicidal activity) [11] [%] | post-emergence efficacy VIOTR ([12]; 320 g/ha) [%] | post-emergence efficacy AMARE ([14]; 320 g/ha) [%] | post-emergence efficacy VERPE ([16]; 80 g/ha) [%] | post-emergence efficacy VERPE ([16]; 320 g/ha) [%] | further results
1 | N#Cc1cc2c(s1)C(Nc1ncc(C(F)(F)F)c(N)n1)CCC2 (racemic) [compound 285] | 100 | 100 | 100 | 100 | 100 | 100 | 100 | 90 | 100 | 100 | 60 | 70 | 100 | 100 | 100 | 50 | 100 | 100 | 60 | 80 | ECHCG pre-emergence efficacy (herbicidal activity) ([1]; Dosage 80 g/ha): 60%; VIOTR pre-emergence efficacy (herbicidal activity) ([3]; Dosage 80 g/ha): 100%; LOLMU pre-emergence efficacy (herbicidal activity) ([6]; Dosage 80 g/ha): 80%; ALOMY pre-emergence efficacy (herbicidal activity) ([8]; Dosage 80 g/ha): 50%; post-emergence efficacy VIOTR ([12]; 80 g/ha): 80%; post-emergence efficacy MATIN ([13]; 320 g/ha): 80%; post-emergence efficacy AMARE ([14]; 80 g/ha): 100%; post-emergence efficacy PHBPU ([15]; 320 g/ha): 60%; post-emergence efficacy STEME ([17]; 80 g/ha): 90%; post-emergence efficacy STEME ([17]; 320 g/ha): 100%
2 | O=S1(=O)CCCc2nc(N[C@@H]3CCCc4sccc43)ncc21 [compound 73] | 100 | 100 | 100 | 100 | 100 | 100 | 100 | 100 | 100 | 100 | 90 | 80 | 100 | 100 | 100 | 100 | 60 | 80 | 80 | 100 | logP (HCOOH) [18]: oily; logP (HCOOH): 2.38;; ECHCG pre-emergence efficacy (herbicidal activity) ([1]; Dosage 80 g/ha): 100%; POLCO pre-emergence efficacy (herbicidal activity) ([2]; Dosage 80 g/ha): 100%; ALOMY pre-emergence efficacy (herbicidal activity) ([8]; Dosage 80 g/ha): 80%; post-emergence efficacy ECHCG ([19]; 320 g/ha): 100%; post-emergence efficacy MATIN ([13]; 80 g/ha): 100%; post-emergence efficacy MATIN ([13]; 320 g/ha): 100%; post-emergence efficacy STEME ([17]; 80 g/ha): 90%; post-emergence efficacy STEME ([17]; 320 g/ha): 100%
3 | CS(=O)(=O)c1cnc(NC2CCCc3occc32)nc1N (racemic) [compound 13] | – | – | 100 | – | 100 | – | 100 | – | – | 90 | – | – | – | – | – | 100 | 100 | – | – | 90 | post-emergence efficacy STEME ([17]; 320 g/ha): 80%
4 | Cc1cc2c(s1)CCCC2Nc1nc(N)c([S+](C)[O-])c(C(F)F)n1 (racemic) [compound 264] | 100 | 100 | 100 | 90 | 100 | 100 | 100 | 60 | 100 | 100 | 60 | 80 | 90 | 100 | 100 | 100 | 90 | 90 | 90 | 90 | VIOTR pre-emergence efficacy (herbicidal activity) ([3]; Dosage 80 g/ha): 100%; ALOMY pre-emergence efficacy (herbicidal activity) ([8]; Dosage 80 g/ha): 60%; post-emergence efficacy ECHCG ([19]; 320 g/ha): 90%; post-emergence efficacy POLCO [20]: 80%; post-emergence efficacy VIOTR ([12]; 80 g/ha): 90%; post-emergence efficacy MATIN ([13]; 80 g/ha): 80%; post-emergence efficacy MATIN ([13]; 320 g/ha): 90%; post-emergence efficacy ABUTH ([21]; 320 g/ha): 90%; post-emergence efficacy AMARE ([14]; 80 g/ha): 90%; post-emergence efficacy SETVI ([22]; 320 g/ha): 80%; post-emergence efficacy STEME ([17]; 80 g/ha): 100%; post-emergence efficacy STEME ([17]; 320 g/ha): 100%
5 | Cc1cc2c(s1)CCCC2Nc1ncc(S(C)(=O)=O)c(N)n1 (racemic) [compound 59] | 100 | 100 | 100 | 100 | 100 | 100 | 100 | 90 | 100 | 100 | 80 | 80 | 100 | 100 | 100 | 80 | 80 | 90 | 90 | 100 | ECHCG pre-emergence efficacy (herbicidal activity) ([1]; Dosage 80 g/ha): 100%; POLCO pre-emergence efficacy (herbicidal activity) ([2]; Dosage 80 g/ha): 80%; VIOTR pre-emergence efficacy (herbicidal activity) ([3]; Dosage 80 g/ha): 100%; ABUTH pre-emergence efficacy (herbicidal activity) ([23]; Dosage 80 g/ha): 80%; ABUTH pre-emergence efficacy (herbicidal activity) ([23]; Dosage 320 g/ha): 100%; post-emergence efficacy ECHCG ([19]; 80 g/ha): 20%; post-emergence efficacy ECHCG ([19]; 320 g/ha): 100%; post-emergence efficacy VIOTR ([12]; 80 g/ha): 80%; post-emergence efficacy ABUTH ([21]; 80 g/ha): 20%; post-emergence efficacy ABUTH ([21]; 320 g/ha): 20%; post-emergence efficacy AMARE ([14]; 80 g/ha): 60%; post-emergence efficacy PHBPU ([15]; 80 g/ha): 80%; post-emergence efficacy PHBPU ([15]; 320 g/ha): 80%; post-emergence efficacy SETVI ([22]; 80 g/ha): 90%; post-emergence efficacy SETVI ([22]; 320 g/ha): 90%
6 | Cc1cc2c(s1)CCCC2Nc1nc(N)c(Br)c(C(C)(C)F)n1 (racemic) [compound 307] | – | 70 | 100 | – | 50 | – | – | – | – | – | – | – | – | – | – | 60 | – | – | – | – | –
